Reference: article PMC6290913 (Journal of medicinal chemistry, 2018)

Tests used:
[1] = target: human ENaCs (α, β, and γ subunits) (Homo sapiens, UniProt P37088+P51168+P51170); experiment: ENaC inhibition assay; assay type: cell-based; conditions: 10 μM compound; transfected HEK-293 cells
[2] = system: 85 serine hydrolases; conditions: 33.3 μM to 10 nM; semiquantitative
[3] = target: uPA (Homo sapiens, UniProt P00749); experiment: EnPlex activity-based protein profiling, uPA; conditions: 33.3 μM to 10 nM; semiquantitative
[4] = target: Mouse uPA (active mouse urokinase, HMW) (Mus musculus, UniProt P06869)
[5] = system: Trypsin; experiment: Chromogenic TLSP activity assay, trypsin; assay type: biochemical; conditions: read-out: Trypsin IC50; chromogenic enzyme inhibition assay
[6] = target: low molecular weight human uPA (Homo sapiens, UniProt P00749); experiment: Fluorometric uPA activity assay; assay type: biochemical; conditions: relative to HMA 5
[7] = system: AsPC-1 human pancreatic cancer cells + human pancreatic stellate cells; experiment: Orthotopic xenograft mouse model of pancreatic cancer; conditions: for liver metastases: 18 or 26 10 mg/kg ip daily for 28 days, compared to gemcitabine

Chain of Mouse uPA (active mouse urokinase, HMW) (P06869 180-433 limits assumed): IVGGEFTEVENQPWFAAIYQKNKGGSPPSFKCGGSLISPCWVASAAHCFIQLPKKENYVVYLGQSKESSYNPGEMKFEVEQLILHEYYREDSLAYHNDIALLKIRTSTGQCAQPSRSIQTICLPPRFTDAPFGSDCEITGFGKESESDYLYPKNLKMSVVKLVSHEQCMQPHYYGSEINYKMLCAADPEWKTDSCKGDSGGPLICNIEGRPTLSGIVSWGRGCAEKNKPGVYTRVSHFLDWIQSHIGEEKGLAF
Chain of Mouse uPA (active mouse urokinase, HMW) (P06869 21-178 partner limits assumed): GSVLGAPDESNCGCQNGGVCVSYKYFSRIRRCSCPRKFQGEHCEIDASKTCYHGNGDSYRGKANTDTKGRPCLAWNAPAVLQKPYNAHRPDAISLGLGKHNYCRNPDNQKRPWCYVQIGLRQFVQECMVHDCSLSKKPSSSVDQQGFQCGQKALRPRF
Chain of human ENaCs (α, β, and γ subunits) (P51170 whole entry): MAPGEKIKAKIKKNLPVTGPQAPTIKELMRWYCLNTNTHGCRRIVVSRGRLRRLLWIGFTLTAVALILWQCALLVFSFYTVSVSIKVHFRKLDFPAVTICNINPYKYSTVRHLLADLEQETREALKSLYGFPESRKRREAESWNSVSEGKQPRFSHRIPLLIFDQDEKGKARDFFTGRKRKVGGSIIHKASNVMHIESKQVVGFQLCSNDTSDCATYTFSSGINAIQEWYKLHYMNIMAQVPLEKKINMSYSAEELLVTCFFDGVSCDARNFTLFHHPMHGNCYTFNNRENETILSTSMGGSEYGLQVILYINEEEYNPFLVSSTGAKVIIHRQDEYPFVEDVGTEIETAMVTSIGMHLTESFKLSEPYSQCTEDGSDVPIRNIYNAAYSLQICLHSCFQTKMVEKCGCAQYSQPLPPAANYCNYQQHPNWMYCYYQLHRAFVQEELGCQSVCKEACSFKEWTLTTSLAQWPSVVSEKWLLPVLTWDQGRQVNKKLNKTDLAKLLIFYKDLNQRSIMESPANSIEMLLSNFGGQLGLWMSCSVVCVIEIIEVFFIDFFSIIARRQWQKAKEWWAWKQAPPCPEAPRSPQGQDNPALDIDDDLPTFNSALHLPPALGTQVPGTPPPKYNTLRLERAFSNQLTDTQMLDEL
Chain of human ENaCs (α, β, and γ subunits) (P37088 whole entry): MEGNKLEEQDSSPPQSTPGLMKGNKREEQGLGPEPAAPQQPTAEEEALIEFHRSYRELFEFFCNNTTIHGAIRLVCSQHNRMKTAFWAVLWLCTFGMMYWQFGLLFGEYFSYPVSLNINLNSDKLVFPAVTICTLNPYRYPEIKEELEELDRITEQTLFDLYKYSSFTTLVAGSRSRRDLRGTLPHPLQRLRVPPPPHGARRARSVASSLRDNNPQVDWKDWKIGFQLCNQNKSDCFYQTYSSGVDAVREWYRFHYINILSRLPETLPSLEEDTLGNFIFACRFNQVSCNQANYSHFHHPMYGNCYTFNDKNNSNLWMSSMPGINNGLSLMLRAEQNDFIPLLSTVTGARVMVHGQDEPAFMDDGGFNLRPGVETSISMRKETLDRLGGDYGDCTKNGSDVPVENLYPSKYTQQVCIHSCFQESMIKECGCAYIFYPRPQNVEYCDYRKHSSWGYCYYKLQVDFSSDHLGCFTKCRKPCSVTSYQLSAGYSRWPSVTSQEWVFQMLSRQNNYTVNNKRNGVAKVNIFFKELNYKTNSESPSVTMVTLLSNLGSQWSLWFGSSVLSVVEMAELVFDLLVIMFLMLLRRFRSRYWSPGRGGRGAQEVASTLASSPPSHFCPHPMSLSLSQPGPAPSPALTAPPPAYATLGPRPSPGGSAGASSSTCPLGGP
Chain of human ENaCs (α, β, and γ subunits) (P51168 whole entry): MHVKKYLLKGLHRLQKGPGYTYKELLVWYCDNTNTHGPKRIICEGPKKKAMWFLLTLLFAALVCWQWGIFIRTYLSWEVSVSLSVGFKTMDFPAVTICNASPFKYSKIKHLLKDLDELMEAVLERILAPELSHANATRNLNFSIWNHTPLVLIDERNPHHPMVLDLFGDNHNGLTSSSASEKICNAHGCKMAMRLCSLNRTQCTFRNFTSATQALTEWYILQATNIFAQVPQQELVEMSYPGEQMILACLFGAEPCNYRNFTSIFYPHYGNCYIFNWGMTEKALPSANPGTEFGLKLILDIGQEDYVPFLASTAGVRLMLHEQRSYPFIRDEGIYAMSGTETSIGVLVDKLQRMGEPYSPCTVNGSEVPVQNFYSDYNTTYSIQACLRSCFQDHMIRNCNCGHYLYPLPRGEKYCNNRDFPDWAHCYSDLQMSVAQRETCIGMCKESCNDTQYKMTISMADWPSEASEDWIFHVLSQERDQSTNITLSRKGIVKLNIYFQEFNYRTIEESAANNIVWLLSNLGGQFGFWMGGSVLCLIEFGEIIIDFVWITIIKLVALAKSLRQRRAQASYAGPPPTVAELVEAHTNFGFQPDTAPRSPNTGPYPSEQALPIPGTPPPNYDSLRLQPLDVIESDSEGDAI

## N=C(N)NC(=O)c1nc(Cl)c(N2CCCCCC2)nc1N [Compound 5, 5-N,N-(hexamethylene)amiloride, reference compound]
[1]
  inhibition of ENaC: greatly reduced activity
[2]
  serine hydrolases inhibited in EnPlex screen: activity against the highly homologous S28 protease family members dipeptidyl peptidase 2 (DPP7) and prolylcarboxypeptidase (PRCP)
[3]
  inhibitory activity against uPA in EnPlex screen: not observed
[4]
  decrease in affinity for mouse uPA versus human uPA: ~7 fold
[5]
  IC50: > 10 µM

## N=C(N)NC(=O)c1nc(-c2ccccc2)c(N2CCCCCC2)nc1N [Compound 9]
[6]
  decrease in uPA potency relative to HMA: ~ 3.7 fold

## N=C(N)NC(=O)c1nc(-c2cncc3ccccc23)c(N2CCCCCC2)nc1N [Compound 13, 3-Amino-5-(azepan-1-yl)-N-carbamimidoyl-6-(isoquinolin-4-yl)pyrazine-2-carboxamide]
[6]
  decrease in uPA potency relative to HMA: ~3 fold

## Cn1cc(-c2nc(C(=O)NC(=N)N)c(N)nc2N2CCCCCC2)cn1 [Compound 14, 3-Amino-5-(azepan-1-yl)-N-carbamimidoyl-6-(1-methyl-1H-pyrazol-4-yl)pyrazine-2-carboxamide]
[6]
  increase in uPA potency relative to HMA: ~ 2.7 fold

## N=C(N)NC(=O)c1nc(-c2cc3ccccc3o2)c(N2CCCCCC2)nc1N [Compound 18, 3-Amino-5-(azepan-1-yl)-6-(benzofuran-2-yl)-N-carbamimidoylpyrazine-2-carboxamide]
[2]
  serine hydrolases inhibited in EnPlex screen: inhibiting plasma kallikrein (KLKb1) and trypsin
[4]
  decrease in affinity for mouse uPA versus human uPA: 10- to 30 fold
[7]
  liver metastases: reduced
[5]
  IC50: > 10 µM

## N=C(N)NC(=O)c1nc(-c2ccco2)c(N2CCCCCC2)nc1N [Compound 22, 3-Amino-5-(azepan-1-yl)-N-carbamimidoyl-6-(furan-2-yl)-pyrazine-2-carboxamide]
[6]
  increase in uPA potency relative to HMA: ~ 8.7 fold

## N=C(N)NC(=O)c1nc(-c2cncnc2)c(N2CCCCCC2)nc1N [Compound 25, 3-Amino-5-(azepan-1-yl)-N-carbamimidoyl-6-(pyrimidin-5-yl)pyrazine-2-carboxamide]
[6]
  increase in uPA potency relative to HMA: ~ 12.6 fold
[2]
  serine hydrolases inhibited in EnPlex screen: slight inhibition of trypsin being the only off-target TLSP activity observed

## COc1ncc(-c2nc(C(=O)NC(=N)N)c(N)nc2N2CCCCCC2)cn1 [Compound 26, 3-Amino-5-(azepan-1-yl)-N-carbamimidoyl-6-(2-methoxypyrimidin-5-yl)pyrazine-2-carboxamide]
[2]
  serine hydrolases inhibited in EnPlex screen: slight activity against C1s, plasma kallikrein, plasmin, prolylcarboxy peptidase, trypsin, and transmembrane protease serine 11D (TMPRSS11d)
[4]
  decrease in affinity for mouse uPA versus human uPA: 10- to 30 fold
[7]
  liver metastases: no macroscopic metastatic lesions observed

## Nc1ccn([C@@H]2O[C@H](CO)[C@@H](O)C2(F)F)c(=O)n1 [gemcitabine, reference compound]
[7]; gemcitabine 75 mg/kg po twice weekly, 18 or 26 10 mg/kg ip daily, 28 days
  effect on end point primary tumor volume: only modest inhibitory effects
